Data on 19 molecules can be found in patent US20250332173A1, “COMPOUNDS AND METHODS FOR MODULATING NUCLEIC ACID SPLICING” (REMIX THERAPEUTICS INC., priority 2021, published 2025).

Where two headings read alike, the source gives them in different places.

The subject of assay [1] is HTT mRNA. Kind of assay: RT-qPCR splicing assay, HTT canonical junction (CJ) and alternative junction (AJ) mRNA. The conditions noted are these: Homo sapiens; for AC50: increase in HTT alternative junction (AJ) mRNA, read-out: HTT AJ AC50. Format: cell-based, human. Summed up: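 24 h treatment, 37 °C/5% CO2; A673 or K562; 11-pt 3-fold series, top 10 uM final; DMSO ≤0.25%. Cell lysis with DNase I, then 1-step RT-qPCR. Housekeeping normalization: PPIA (A673), GAPDH or GUSB (K562).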
A general note: In qPCR the cycle at which signal appears reflects the starting amount.

The test system of assay [2] is SMN2 mRNA. Kind of assay: RT-qPCR splicing assay, SMN2 canonical junction (CJ) mRNA. It is filed as cell-based, human. To be noted: Homo sapiens; Table 5 panel; canonical junction qPCR; compound concentration having 50% response in CJ decrease; read-out: SMN2 IC50 (decrease in CJ mRNA levels). Summed up: (§1)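 Cells are plated (A673 allowed 24 h to adhere), dosed with an 11-point 3-fold series topping at 10 uM final, and incubated 24 h at 37 °C. Lysis is followed by cDNA synthesis and qPCR of the CJ transcript, normalized to a housekeeping gene.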

The test system of assay [3] is Target C. Put plainly: RT-qPCR splicing assay panel, Target C canonical junction (CJ) mRNA. Format: cell-based, human. To be noted: Homo sapiens; Table 5 panel; canonical junction qPCR; compound concentration having 50% response in CJ decrease; read-out: Target C IC50 (decrease in CJ mRNA levels). Summed up: as §1
In assay [4] the test system is K562 (human chronic myelogenous leukemia) cells. Kind of assay: Cell Titer Glo 2.0 cell viability assay. Format: cell-based. The conditions noted are these: Homo sapiens, K562, 72 h, K562 cells, 72 hours, Cell Titer Glo 2.0; read-out: K562 GI50.
The mark [5] stands for this setting: decrease in HTT canonical junction (CJ) mRNA, RT-qPCR, read-out: HTT CJ IC50.
The mark [6] stands for this setting: Table 5 panel, canonical junction qPCR, compound concentration having 50% response in CJ decrease, read-out: HTT IC50 (decrease in CJ mRNA levels).

A word on the IC50: it is the concentration that inhibits the measured activity by half. Usually AC50 stands for the concentration giving half of the maximal activity seen. A word on the GI50: it is the concentration giving 50% growth inhibition. In the case of `Cc1cn2nc(-c3cc(F)c4c(=O)n([C@@H]5CCN(C)C6(CC6)C5)ncc4c3)cc(C)c2n1` [Compound 637], the IC50 in assay [1] (setting [5]) is less than 100 nM; in assay [1] (setting [6]), less than 100 nM; in assay [2], less than 100 nM; in assay [3], less than 0.1 µM. In addition, in assay [1] (RT-qPCR), the AC50 is less than 100 nM. Also, in assay [4], the GI50 fell in the range of 100 to 1000 nM.

For `Cc1cn2nc(-c3cc(F)c4c(=O)n([C@H]5CCN(C)C6(CC6)C5)ncc4c3)cc(C)c2n1` [Compound 638], the IC50 is less than 100 nM in assay [1] (setting [5]), less than 100 nM in assay [1] (setting [6]), less than 100 nM in assay [2] and less than 0.1 µM in assay [3]. In assay [1] (RT-qPCR), the AC50 was less than 100 nM. The GI50 in assay [4] is 100 to 1000 nM.

As for `Cc1cn2nc(-c3cc4ccn([C@@H]5CCNC5)c(=O)c4cc3O)cc(C)c2n1` [Compound 640, 6-(2,8-dimethylimidazo[1,2-b]pyridazin-6-yl)-7-hydroxy-2-[(3R)-pyrrolidin-3-yl]isoquinolin-1-one], the IC50 in assay [1] (setting [5]) is 1000 to 10000 nM; in assay [1] (setting [6]), 100 to 1000 nM; in assay [2], less than 100 nM; in assay [3], 1 to 10 µM. Further, the half-maximal activity concentration (AC50) in assay [1] (RT-qPCR) was 100 to 1000 nM. Moreover, in assay [4], the GI50 fell in the range of 100 to 1000 nM.

For `Cc1cn2nc(-c3cc4ccn([C@H]5CCNC5)c(=O)c4cc3O)cc(C)c2n1` [Compound 641, 6-(2,8-dimethylimidazo[1,2-b]pyridazin-6-yl)-7-hydroxy-2-[(3S)-pyrrolidin-3-yl]isoquinolin-1-one], the IC50 in assay [1] (setting [5]) was 1000 to 10000 nM; in assay [1] (setting [6]), 100 to 1000 nM; in assay [2], less than 100 nM; in assay [3] it was 1 to 10 µM. For the same molecule, in assay [1] (RT-qPCR), the AC50 lay within 100 to 1000 nM. Moreover, the GI50 in assay [4] is 100 to 1000 nM.

Turning to `Cc1cn2cc(-c3cc(F)c4c(=O)n([C@@H]5C[C@@H](C)N[C@@H](C)C5)ccc4c3)cc(F)c2n1` [Compound 642, 2-[(2S,6R)-2,6-dimethyl-4-piperidyl]-8-fluoro-6-(8-fluoro-2-methyl-imidazo[1,2-a]pyridin-6-yl)isoquinolin-1-one], the IC50 in assay [1] (setting [5]) is 1000 to 10000 nM; in assay [1] (setting [6]), 100 to 1000 nM; in assay [2], less than 100 nM; in assay [3] it was 1 to 10 µM. Also, the concentration at half-maximal activity (AC50) in assay [1] (RT-qPCR) was in the range of 100 to 1000 nM. Further, the GI50 in assay [4] was 1000 to 10000 nM.

As for `Cc1cn2cc(-c3cc(F)c4c(=O)n([C@H]5CNC[C@@H]5F)ccc4c3)cc(F)c2n1` [Compound 644], the concentration for half-maximal inhibition (IC50) is more than 10000 nM in assay [1] (setting [5]), more than 10000 nM in assay [1] (setting [6]), 100 to 1000 nM in assay [2] and more than 10 µM in assay [3]. In addition, in assay [1] (RT-qPCR), the AC50 is more than 10000 nM. In addition, in assay [4], the GI50 fell in the range of 1000 to 10000 nM.

Consider `Cc1cn2nc(-c3cc(N)c4c(=O)n([C@H]5CCNC5)ccc4c3)cc(C)c2n1` [Compound 645, 8-amino-6-(2,8-dimethylimidazo[1,2-b]pyridazin-6-yl)-2-[(3S)-pyrrolidin-3-yl]isoquinolin-1-one], for which the IC50 in assay [1] (setting [5]) is more than 10000 nM; in assay [1] (setting [6]) it was 1000 to 10000 nM; in assay [2], 100 to 1000 nM; in assay [3], more than 10 µM. In addition, the concentration at half-maximal activity (AC50) in assay [1] (RT-qPCR) fell in the range of 1000 to 10000 nM. Further, in assay [4], the GI50 was 1000 to 10000 nM.

Take `Cc1cn2nc(-c3cc(N)c4c(=O)n([C@@H]5CCNC5)ccc4c3)cc(C)c2n1` [Compound 646, 8-amino-6-(2,8-dimethylimidazo[1,2-b]pyridazin-6-yl)-2-[(3R)-pyrrolidin-3-yl]isoquinolin-1-one]: the IC50 is more than 10000 nM in assay [1] (setting [5]), more than 10000 nM in assay [1] (setting [6]), 100 to 1000 nM in assay [2] and more than 10 µM in assay [3]. For the same molecule, the AC50 in assay [1] (RT-qPCR) was more than 10000 nM. Moreover, the GI50 in assay [4] is 1000 to 10000 nM.

In the case of `CNc1cc(-c2cc(C)c3nc(C)cn3n2)cc2ccn([C@H]3CCNC3)c(=O)c12` [Compound 647, 6-(2,8-dimethylimidazo[1,2-b]pyridazin-6-yl)-8-(methylamino)-2-[(3S)-pyrrolidin-3-yl]isoquinolin-1-one], the IC50 in assay [1] (setting [5]) was more than 10000 nM; in assay [1] (setting [6]), 1000 to 10000 nM; in assay [2], 100 to 1000 nM; in assay [3], more than 10 µM. Besides, the AC50 in assay [1] (RT-qPCR) lay in the range of 1000 to 10000 nM. Besides, the GI50 in assay [4] lay within 1000 to 10000 nM.

With `CNc1cc(-c2cc(C)c3nc(C)cn3n2)cc2ccn([C@@H]3CCNC3)c(=O)c12` [Compound 648, 6-(2,8-dimethylimidazo[1,2-b]pyridazin-6-yl)-8-(methylamino)-2-[(3R)-pyrrolidin-3-yl]isoquinolin-1-one], the IC50 is more than 10000 nM in assay [1] (setting [5]), more than 10000 nM in assay [1] (setting [6]), 100 to 1000 nM in assay [2] and more than 10 µM in assay [3]. Moreover, the AC50 in assay [1] (RT-qPCR) was more than 10000 nM. Also, in assay [4], the GI50 was in the range of 1000 to 10000 nM.

As for `CC(=O)Nc1cc(-c2cc(C)c3nc(C)cn3n2)cc2ccn([C@H]3CCNC3)c(=O)c12` [Compound 649, N-[6-(2,8-dimethylimidazo[1,2-b]pyridazin-6-yl)-1-oxo-2-[(3S)-pyrrolidin-3-yl]-8-isoquinolyl]acetamide], the IC50 was 1000 to 10000 nM in assay [1] (setting [5]), 1000 to 10000 nM in assay [1] (setting [6]), 100 to 1000 nM in assay [2] and more than 10 µM in assay [3]. In addition, the concentration at half-maximal activity (AC50) in assay [1] (RT-qPCR) lay within 1000 to 10000 nM. Besides, the GI50 in assay [4] fell in the range of 1000 to 10000 nM.

As to `CC(=O)Nc1cc(-c2cc(C)c3nc(C)cn3n2)cc2ccn([C@@H]3CCNC3)c(=O)c12` [Compound 650, N-[6-(2,8-dimethylimidazo[1,2-b]pyridazin-6-yl)-1-oxo-2-[(3R)-pyrrolidin-3-yl]-8-isoquinolyl]acetamide], the IC50 was more than 10000 nM in assay [1] (setting [5]), more than 10000 nM in assay [1] (setting [6]), 1000 to 10000 nM in assay [2] and more than 10 µM in assay [3]. In addition, in assay [1] (RT-qPCR), the AC50 is more than 10000 nM. Moreover, the GI50 in assay [4] lay within 1000 to 10000 nM.

Regarding `Cc1cn2cc(-c3cc(F)c4c(=O)n(C5CC(C)NC(C)C5)ccc4c3)cc(F)c2n1` (stereo not drawn) [Compound 651], the IC50 in assay [1] (setting [5]) was 100 to 1000 nM; in assay [1] (setting [6]), less than 100 nM; in assay [2], less than 100 nM; in assay [3], 0.1 to 1 µM. Besides, in assay [1] (RT-qPCR), the AC50 was less than 100 nM. Further, the GI50 in assay [4] is less than 100 nM.

Take `Cc1cn2cc(-c3cc(F)c4c(=O)n([C@H]5CNC[C@H]5C)ccc4c3)cc(F)c2n1` [Compound 652, 8-fluoro-6-(8-fluoro-2-methyl-imidazo[1,2-a]pyridin-6-yl)-2-[(3R,4R)-4-methylpyrrolidin-3-yl]isoquinolin-1-one]: the IC50 is more than 10000 nM in assay [1] (setting [5]), more than 10000 nM in assay [1] (setting [6]), 100 to 1000 nM in assay [2] and more than 10 µM in assay [3]. In assay [1] (RT-qPCR), the AC50 was more than 10000 nM. The GI50 in assay [4] fell in the range of 1000 to 10000 nM.

Take `Cc1cn2cc(-c3cc(F)c4c(=O)n([C@@H]5CNC[C@@H]5C)ccc4c3)cc(F)c2n1` [Compound 653, 8-fluoro-6-(8-fluoro-2-methyl-imidazo[1,2-a]pyridin-6-yl)-2-[(3S,4S)-4-methylpyrrolidin-3-yl]isoquinolin-1-one]: the IC50 was more than 10000 nM in assay [1] (setting [5]), more than 10000 nM in assay [1] (setting [6]), 100 to 1000 nM in assay [2] and more than 10 µM in assay [3]. Moreover, the AC50 in assay [1] (RT-qPCR) is more than 10000 nM. In addition, in assay [4], the GI50 was more than 10000 nM.

As to `Cn1cc2cc(-c3ncc4c(=O)n(C5CCNCC5)ccc4n3)c(O)c(F)c2n1` [Compound 1123], the IC50 in assay [1] (setting [5]) is 100 to 1000 nM; in assay [1] (setting [6]), less than 100 nM; in assay [2], less than 100 nM; in assay [3], 0.1 to 1 µM. Moreover, the half-maximal activity concentration (AC50) in assay [1] (RT-qPCR) was less than 100 nM. Also, the GI50 in assay [4] is less than 100 nM.

For `CNC1CCN(c2ccc3cc(-c4cc(C)c5nc(C)cn5n4)ccn3c2=O)C1` (stereo not drawn) [Compound 1158], the IC50 in assay [1] (setting [5]) is 1000 to 10000 nM; in assay [1] (setting [6]), 100 to 1000 nM; in assay [2], less than 100 nM; in assay [3] it was 1 to 10 µM. For the same molecule, the AC50 in assay [1] (RT-qPCR) lay in the range of 100 to 1000 nM. The GI50 in assay [4] is 100 to 1000 nM.

`Cc1cn2nc(-c3ccn4c(=O)c(C5CCNCC5)ccc4c3)cc(C)c2n1` [Compound 1181]: the IC50 in assay [1] (setting [5]) was less than 100 nM; in assay [1] (setting [6]) it was less than 100 nM; in assay [2], less than 100 nM; in assay [3], less than 0.1 µM. Besides, the AC50 in assay [1] (RT-qPCR) was less than 100 nM. For the same molecule, in assay [4], the GI50 is less than 100 nM.

Turning to `Cc1cn2nc(-c3ccn4c(=O)c(C5=CCNCC5)ncc4c3)cc(C)c2n1` [Compound 1182], the IC50 in assay [1] (setting [5]) lay in the range of 100 to 1000 nM; in assay [1] (setting [6]), 100 to 1000 nM; in assay [2] it was 100 to 1000 nM; in assay [3], 0.1 to 1 µM. Moreover, the AC50 in assay [1] (RT-qPCR) is 100 to 1000 nM. In addition, in assay [4], the GI50 lay in the range of 100 to 1000 nM.
